Assay results as given in patent US7425577B2, “Lipase-colipase inhibitor” (Forskarpatent 1 SYD AB, priority 2003, dated 2008).

Molecular target: T1, Lipase and colipase, purified from human pancreatic gland (Homo sapiens, UniProt P04118+P16233)
T1 construct: Lipase, Purified from Human Pancreatic Gland; Colipase, Purified from Human Pancreatic Gland; from tissue; host or cells: human pancreatic gland
T1 sequence (P16233 17-465): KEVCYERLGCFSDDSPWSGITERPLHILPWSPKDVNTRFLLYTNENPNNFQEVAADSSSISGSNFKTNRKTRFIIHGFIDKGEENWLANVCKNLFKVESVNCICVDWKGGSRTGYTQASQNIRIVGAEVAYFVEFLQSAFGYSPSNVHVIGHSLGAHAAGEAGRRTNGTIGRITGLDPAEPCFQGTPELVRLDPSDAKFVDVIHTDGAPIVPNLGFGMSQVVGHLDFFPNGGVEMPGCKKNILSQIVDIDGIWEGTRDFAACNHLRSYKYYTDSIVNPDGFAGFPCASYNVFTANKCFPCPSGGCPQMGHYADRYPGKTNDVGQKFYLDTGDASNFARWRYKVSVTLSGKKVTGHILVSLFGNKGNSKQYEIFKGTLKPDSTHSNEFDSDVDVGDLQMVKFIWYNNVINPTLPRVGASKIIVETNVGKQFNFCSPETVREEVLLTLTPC
T1 sequence (P04118 23-112): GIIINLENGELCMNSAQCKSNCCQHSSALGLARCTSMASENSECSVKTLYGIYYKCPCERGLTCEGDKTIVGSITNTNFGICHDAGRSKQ
Experiment: Determination of lipolysis by colipase/lipase (pH-stat, tributyrine emulsion with NaTDC)
Assay type: biochemical
Description: Determination of Lipolysis by Colipase/Lipase
The most important enzyme in the gastro-intestinal tract being responsible for the hydrolysis of lipids/fats in the gastro-intestinal tract is lipase, pancreatic lipase, together with its protein cofactor colipase. These are two proteins, which are secreted from the pancreatic gland. […] The colipase binds to lipase in a molar 1:1 complex and then moves the complex to the triglyceride surface. In the binding between lipase and colipase hydrogen bonds are present, between arg38 of the colipase and ser343 of the lipase and from glu15 of the colipase and the asn241 of the lipase molecules. In the binding of colipase to the substrate (the lipids/fat) there are both hydrophobic bonds as well as ion-ion bonds present. By an isolated lack of colipase it has been shown that colipase has a decisive role for the lipolysis in the gastro-intestinal tract of humans. Pure lipase and colipase have been produced in accordance with the following.
Lipase, Purified from Human Pancreatic Gland
Colipase, Purified from Human Pancreatic Gland
0.5 ml of tributyrine is mixed with 15 ml of a buffer containing 1 mM CaCl2, 150 mM NaCl, 2 mM tris-maleate, pH 7.0 and 4 mM NaTDC (sodium taurodeoxycholate). An emulsion is obtained by continuous stirring. pH is titrated by means of a pH-state, where 0.1 N NaOH is added automatically to keep an constant pH. 10 μl of lipase is added from a stock solution containing 70 units of lipase/ml, followed by 10 μl of colipase from a stock solution containing 1 mg colipase/ml. An activity is registered which is determined to be 100%. An addition of an inhibitor is then made. A new assay is used for every concentration, prepared in the same way. The inhibition is registered as percentage of control. A dose-response plot is obtained for the compounds having an inhibiting ability.

CCCCCCCCCCCCCCN(C)C [N,N-dimethyl tetradecyl amine]
Activity Inhibitor (amount of inhibitor 1.04 μmol, control activity 0.226): 0.179 µmol/min | Activity Inhibitor (amount of inhibitor 2.07 μmol, control activity 0.243): 0.121 µmol/min | Activity Inhibitor (amount of inhibitor 4.14 μmol, control activity 0.223): 0.056 µmol/min | Activity Inhibitor (amount of inhibitor 7.25 μmol, control activity 0.257): 0.045 µmol/min | Activity Inhibitor (amount of inhibitor 10.35 μmol, control activity 0.282): 0.033 µmol/min | Activity Inhibitor (amount of inhibitor 15.53 μmol, control activity 0.256): 0 µmol/min

CCCCCCCCCCCCOCCOCCOCCOCCOCCOCCOCCOCCOCCN(CCC)CCC [dipropylaminoethyl octaethyleneglycol dodecyl ether]
Activity Inhibitor (amount of inhibitor 0.2 μmol, control activity 0.256): 0.256 µmol/min | Activity Inhibitor (amount of inhibitor 0.4 μmol, control activity 0.28): 0.256 µmol/min | Activity Inhibitor (amount of inhibitor 0.8 μmol, control activity 0.259): 0.209 µmol/min | Activity Inhibitor (amount of inhibitor 2.01 μmol, control activity 0.25): 0.136 µmol/min | Activity Inhibitor (amount of inhibitor 4.02 μmol, control activity 0.246): 0.096 µmol/min | Activity Inhibitor (amount of inhibitor 8.04 μmol, control activity 0.244): 0.033 µmol/min | Activity Inhibitor (amount of inhibitor 12.06 μmol, control activity 0.252): 0.011 µmol/min | Activity Inhibitor (amount of inhibitor 16.08 μmol, control activity 0.247): 0 µmol/min

CCCCCCCCOCCN(C)C [dimethylaminoethyl octyl ether]
Activity Inhibitor (amount of inhibitor 2.49 μmol, control activity 0.304): 0.249 µmol/min | Activity Inhibitor (amount of inhibitor 4.98 μmol, control activity 0.319): 0.215 µmol/min | Activity Inhibitor (amount of inhibitor 8.71 μmol, control activity 0.314): 0.136 µmol/min | Activity Inhibitor (amount of inhibitor 12.44 μmol, control activity 0.356): 0.069 µmol/min | Activity Inhibitor (amount of inhibitor 18.66 μmol, control activity 0.32): 0.053 µmol/min | Activity Inhibitor (amount of inhibitor 21.89 μmol, control activity 0.293): 0.035 µmol/min | Activity Inhibitor (amount of inhibitor 24.88 μmol, control activity 0.278): 0 µmol/min

CCCCCCCCCCCCOCCOCCOCCOCCOCCOCCN(C)C [dimethylaminoethyl pentaethyleneglycol dodecyl ether]
Activity Inhibitor (amount of inhibitor 0.26 μmol, control activity 0.307): 0.273 µmol/min | Activity Inhibitor (amount of inhibitor 0.52 μmol, control activity 0.29): 0.236 µmol/min | Activity Inhibitor (amount of inhibitor 1.05 μmol, control activity 0.302): 0.222 µmol/min | Activity Inhibitor (amount of inhibitor 2.62 μmol, control activity 0.299): 0.13 µmol/min | Activity Inhibitor (amount of inhibitor 5.23 μmol, control activity 0.314): 0.083 µmol/min | Activity Inhibitor (amount of inhibitor 7.85 μmol, control activity 0.312): 0.04 µmol/min | Activity Inhibitor (amount of inhibitor 10.46 μmol, control activity 0.3): 0.015 µmol/min | Activity Inhibitor (amount of inhibitor 15.69 μmol, control activity 0.319): 0.009 µmol/min | Activity Inhibitor (amount of inhibitor 20.92 μmol, control activity 0.282): 0 µmol/min
